Where two headings read alike, the source gives them in different places.
How the values were obtained:
Human CB2 = Human CB2 (Homo sapiens, UniProt P34972); experiment: cAMP inhibition assay (HitHunter cAMP XS+, Eurofins) in human CB2 cells; assay type: cell-based; settings: for hCB2 cAMP (−) CP55,940 % Max: absence of CP55,940; for hCB2 cAMP (−) CP55,940 % Max / hCB2 cAMP (+) CP55,940 % Max: % of maximal CP55,940 response; for hCB2 cAMP (+) CP55,940 % Max: presence of EC20 CP55,940
Protocol: Assays were performed by Eurofins Discovery (Freemont, CA, USA). cAMP Hunter cell lines were expanded from freezer stocks according to standard procedures. Human CB2 cells were seeded in a total volume of 20 μL into white-walled, 384-well microplates and incubated at 37 °C for the appropriate time prior to testing. cAMP modulation was determined using the DiscoverX HitHunter cAMP XS+ assay. For agonist determination, cells were incubated with samples in the presence of EC80 forskolin to induce a response. Media was aspirated from cells and replaced with 10 μL HBSS/10 mM HEPES. Intermediate dilution of sample stocks was performed to generate 4× sample in assay buffer, and 5 μL of 4× sample was added to cells. Then, 5 μL of 4× EC80 forskolin diluted in HBSS/HEPES was added and incubated at 37 °C for 30 min. The final assay vehicle concentration was 1%. For allosteric determination, cells were pre-incubated with the sample followed by agonist induction at the EC20 concentration. Media was aspirated from cells and replaced with 10 μL HBSS/10 mM HEPES. Intermediate dilution of sample stocks was performed to generate 4× samples in assay buffer. Then, 5 μL of 4× compound was added to the cells and incubated at room temperature or 37 °C for 5 min. Subsequently, 5 μL of 4× EC20 agonist was added to the cells and incubated at 37 °C for 30 min. EC80 forskolin was included.
After appropriate compound incubation, the assay signal was generated by incubation with 5 μL cAMP XS+ Ab reagent, followed by 20 μL cAMP XS+ ED/CL lysis cocktail for one hour at room temperature. Then, 20 μL cAMP XS+ EA reagent was added and incubated for two hours at room temperature. Microplates were read following signal generation with a PerkinElmer Envision^TM instrument for chemiluminescent signal detection.
Compound activity was analyzed using the CBIS data analysis suite (ChemInnovation, San Diego, CA, USA). For agonist mode assays, percentage activity was calculated using the following formula: % Activity = 100% × (1 − (mean RLU of test sample − mean RLU of MAX control)/(mean RLU of vehicle control − mean RLU of MAX control)).
For Gi positive allosteric mode assays, percentage modulation was calculated using the following formula: % Modulation = 100% × (1 − (mean RLU of test sample − mean RLU of MAX control)/(mean RLU of EC20 control − mean RLU of MAX control)).

[1] = target: T1, M4 muscarinic receptor expressed in HEK/GIRK cells (no CB receptor) (Homo sapiens, UniProt P08173); experiment: Thallium flux assay in parental HEK/GIRK cells (no CB receptor), acetylcholine as agonist; assay type: cell-based; settings: presence of EC20 acetylcholine, cells without CB receptor
T1 construct: host or cells: HEK/GIRK cells without CB receptor
T1 sequence (P08173 1-479): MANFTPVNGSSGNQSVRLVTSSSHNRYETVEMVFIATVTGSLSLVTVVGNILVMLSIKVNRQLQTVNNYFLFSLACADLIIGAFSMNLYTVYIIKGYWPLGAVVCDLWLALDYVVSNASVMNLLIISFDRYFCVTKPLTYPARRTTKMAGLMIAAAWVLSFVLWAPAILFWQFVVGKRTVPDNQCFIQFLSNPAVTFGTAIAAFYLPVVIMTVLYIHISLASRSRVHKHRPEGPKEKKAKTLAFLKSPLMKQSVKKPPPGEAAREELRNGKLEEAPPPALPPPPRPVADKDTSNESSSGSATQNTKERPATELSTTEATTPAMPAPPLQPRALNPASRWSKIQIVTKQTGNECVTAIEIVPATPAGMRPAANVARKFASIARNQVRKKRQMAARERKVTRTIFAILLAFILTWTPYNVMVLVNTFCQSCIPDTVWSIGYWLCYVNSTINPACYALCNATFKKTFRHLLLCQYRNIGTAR
Source text: Mycophenolate mofetil is an immunosuppressant used to prevent organ transplant rejection and to treat autoimmune disorders such as lupus. To determine if mycophenolate mofetil exerts its activity in the thallium flux assay through rCB2, we tested it for activity in HEK cells expressing GIRK channels but not rCB2. Submaximal concentrations of acetylcholine were used as the agonist, targeting an M4 muscarinic receptor expressed in these HEK/GIRK cells. […] It was also critical to determine if mycophenolate mofetil was selective for the rCB2 versus rCB1 receptors, as activation of rCB1 receptors can have negative side effects, including anxiety, paranoia, and psychosis. […]
Thallium flux assays were performed as previously described in Niswender et al., 2008 [31]. […] Thallium flux was measured using the Hamamatsu FDSS/μCELL Kinetic Plate Imager (Bridgewater, NJ, USA). After the establishment of a fluorescence baseline (excitation, 480 ± 20 nm; emission, 540 ± 30 nm), 20 µL (2×) of test compound was added to the cells at 1 s and the response was measured. […] Raw kinetic data were analyzed in a multi-step process: (1) Fluorescence readings for each time point in a well were divided by the fluorescence reading at the initial time point to account for differences in cell number, non-uniform illumination, and dye-loading. […]

[2] = hCB2 cAMP (+) CP55,940 pEC50, presence of EC20 CP55,940, EC80 forskolin
[3] = hCB2 cAMP (−) CP55,940 pEC50, absence of CP55,940, EC80 forskolin

Human CB2, sequence (P34972 whole entry): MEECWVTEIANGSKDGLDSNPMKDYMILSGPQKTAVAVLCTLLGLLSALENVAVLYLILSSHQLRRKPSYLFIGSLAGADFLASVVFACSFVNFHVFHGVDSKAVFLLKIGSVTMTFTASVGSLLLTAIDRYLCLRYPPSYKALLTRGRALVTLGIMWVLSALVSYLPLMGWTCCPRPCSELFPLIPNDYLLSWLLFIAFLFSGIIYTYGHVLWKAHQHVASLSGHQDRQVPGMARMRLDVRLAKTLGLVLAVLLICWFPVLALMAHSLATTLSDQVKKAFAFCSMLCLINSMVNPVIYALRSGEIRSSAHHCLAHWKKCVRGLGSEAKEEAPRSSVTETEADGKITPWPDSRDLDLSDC

hCB2 cAMP (−) CP55,940 pEC50 (Human CB2; absence of CP55,940, EC80 forskolin)	EC50 (Human CB2; presence of EC20 CP55,940, EC80 forskolin, read-out: hCB2 cAMP (+) CP55,940 pEC50 (converted))	HEK GIRK (+) ACh pEC50 ± SEM % Max ± SEM [1]	SMILES	hCB2 cAMP (−) CP55,940 % Max (Human CB2)	EC50 (Human CB2; [2])	EC50 (Human CB2; [3])	hCB2 cAMP (+) CP55,940 % Max (Human CB2)
–	–	–	O=C(NCC1CCOCC1)c1cnc(Nc2ccc(Cl)cc2Cl)nc1C(F)(F)F [GW-842,166X, 2-(2,4-dichloroanilino)-N-(oxan-4-ylmethyl)-4-(trifluoromethyl)pyrimidine-5-carboxamide]	120%	5.13 µM	2.04 µM	119%
–	–	–	CC1(Cc2ccccc2)COc2cc(C(=O)N3CCCCC3)ccc21 (centres unmarked) [MDA7, 1-[(3-benzyl-3-methyl-2,3-dihydro-1-benzofuran-6-yl)carbonyl]piperidine]	108%	> 10 µM	> 10 µM	111%
< 5.0	> 10 µM	Inactive	COc1c(C)c2c(c(O)c1C/C=C(\C)CCC(=O)OCCN1CCOCC1)C(=O)OC2 [Mycophenolate mofetil]	46%	–	–	41%
–	–	Inactive	COc1c(C)c2c(c(O)c1C/C=C(\C)CCC(=O)O)C(=O)OC2 [Mycophenolic acid]	–	–	–	–

Source: paper PMC12112332, “Characterization of Novel and Known Activators of Cannabinoid Receptor Subtype 2 Reveals Mixed Pharmacology That Differentiates Mycophenolate Mofetil and GW-842,166X from MDA7” (International Journal of Molecular Sciences, 2025)
